Data: ChEMBL document CHEMBL5512599, “Synthetic non-toxic anti-biofilm agents as a strategy in combating bacterial resistance” (Eur J Med Chem, 2023)
One block for each compound: values may come before it.

Experiments:
[1] = target: T1, Transcriptional regulator MvfR (Pseudomonas aeruginosa PA14, UniProt A0A072ZLE6); assay: Antagonist activity at PqsR in wild-type Pseudomonas aeruginosa PA14 assessed as reduction in AQ level at 0.2 uM by LCMS/MS analysis
T1 sequence (A0A072ZLE6 whole entry): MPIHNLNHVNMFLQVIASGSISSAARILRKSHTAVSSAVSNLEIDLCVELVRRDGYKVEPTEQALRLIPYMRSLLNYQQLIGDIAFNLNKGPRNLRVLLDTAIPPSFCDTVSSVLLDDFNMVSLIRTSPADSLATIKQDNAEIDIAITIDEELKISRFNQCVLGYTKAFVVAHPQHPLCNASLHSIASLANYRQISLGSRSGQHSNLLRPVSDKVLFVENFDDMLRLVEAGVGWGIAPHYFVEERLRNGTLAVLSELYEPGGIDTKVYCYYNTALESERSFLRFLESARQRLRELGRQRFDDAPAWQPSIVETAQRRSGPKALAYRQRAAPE

[2] = target: T1, Transcriptional regulator MvfR; assay: Antagonist activity at PqsR in wild-type Pseudomonas aeruginosa PAO1 assessed as reduction in AQ level at 0.2 uM by LCMS/MS analysis
Staphylococcus aureus [3] = assay: Inhibition of Staphylococcus aureus Sortase A at 100 uM relative to control
Staphylococcus aureus [4] = assay: Antibiofilm activity against Staphylococcus aureus ATCC 25923 assessed as inhibition of biofilm formation; format: functional, organism-based
Pseudomonas aeruginosa [5] = assay: Anti-motility activity against Pseudomonas aeruginosa PAO1 assessed as reduction in swarming at 100 ug/ml incubated for 16 hrs by crystal violet staining analysis; format: functional; set-up: scale not given: the % may be the effect or the level left; details: dose 100 µg/ml
Acinetobacter baumannii = assay: Antibiofilm activity against Acinetobacter baumannii ATCC 19606 assessed as inhibition of biofilm formation at 66.5 ug/ml by crystal violet assay; format: functional; set-up: scale not given: the % may be the effect or the level left; details: dose 66.5 µg/ml
Pseudomonas aeruginosa [6] = assay: Anti-motility activity against Pseudomonas aeruginosa PAO1 assessed as reduction in swarming at 50 ug/ml incubated for 16 hrs by crystal violet staining analysis; format: functional; set-up: scale not given: the % may be the effect or the level left; details: dose 50 µg/ml
Staphylococcus aureus [7] = assay: Antimicrobial activity against methicillin-resistant Staphylococcus aureus ATCC 43866 assessed as reduction in microbial growth incubated for 24 hrs by broth microdilution method; format: functional, organism-based; details: ATCC 43866, 24 h
Staphylococcus aureus [8] = assay: Antimicrobial activity against methicillin-sensitive Staphylococcus aureus ATCC 35556 assessed as reduction in microbial growth incubated for 24 hrs by broth microdilution method; format: functional, organism-based; details: ATCC 35556, 24 h
Pseudomonas aeruginosa [9] = assay: Antibacterial activity against Pseudomonas aeruginosa 27853 assessed as inhibition of bacterial growth at 3.2 microg/ml incubated for 24 hrs by absorbance based microplate reader analysis relative to control; format: functional; set-up: scale not given: the % may be the effect or the level left; details: dose 3.2 µg/ml
Staphylococcus aureus [10] = assay: Antibacterial activity against Staphylococcus aureus assessed as bacterial growth inhibition; format: functional, organism-based
Enterococcus faecium = assay: Antibacterial activity against Vancomycin-resistant Enterococcus faecium ATCC 51559 assessed as reduction in bacterial growth incubated for 18 hrs by spectrophotometry based analysis; format: functional, organism-based; details: ATCC 51559, 18 h
Staphylococcus aureus [11] = assay: Antibiofilm activity against methicillin-resistant Staphylococcus aureus assessed as inhibition of biofilm formation incubated for 8 hrs by crystal violet staining based analysis; format: functional, organism-based
[12] = Inhibition of Staphylococcus aureus sortase A by FRET assay
Staphylococcus aureus [13] = assay: Antibacterial activity against Staphylococcus aureus ATCC 25923 assessed as reduction in bacterial growth incubated for 18 to 24 hrs by broth microdilution method; format: functional; details: time 18-24 hrs
Staphylococcus aureus [14] = assay: Antibiofilm activity against Staphylococcus aureus ATCC 25923 after 24 hrs by crystal violet staining based assay; format: functional
Staphylococcus aureus [15] = assay: Antibacterial activity against Staphylococcus aureus ATCC 6538 assessed as reduction in bacterial growth incubated for 18 to 24 hrs by broth microdilution method; format: functional; details: time 18-24 hrs
Staphylococcus aureus [16] = assay: Antibacterial activity against Staphylococcus aureus ATCC 29213 assessed as reduction in bacterial growth incubated for 18 to 24 hrs by broth microdilution method; format: functional; details: time 18-24 hrs
[17] = system: Staphylococcus epidermidis; assay: Antibacterial activity against Staphylococcus epidermidis RP62A assessed as reduction in bacterial growth incubated for 18 to 20 hrs by broth microdilution assay; format: functional; details: time 18-20 hrs
[18] = Inhibition of quorum sensing system in Pseudomonas aeruginosa PA14 assessed as inhibition of pyocyanin production
Pseudomonas aeruginosa [19] = assay: Antibiofilm activity against Pseudomonas aeruginosa PAO1 assessed as inhibition of biofilm formation incubated for 24 hrs by crystal violet staining based assay; format: functional, organism-based; details: PAO1, 24 h
Staphylococcus aureus [20] = assay: Antibiofilm activity against Staphylococcus aureus BAA 1708 at 3.1 ug/ml measured after 24 hrs by crystal violet staining based analysis relative to control; format: functional; details: dose 3.1 µg/ml
Staphylococcus aureus [21] = assay: Antibiofilm activity against Staphylococcus aureus ATCC 29213 at 3.1 ug/ml measured after 24 hrs by crystal violet staining based analysis relative to control; format: functional; details: dose 3.1 µg/ml
Staphylococcus aureus [22] = assay: Antibiofilm activity against Staphylococcus aureus ATCC 25923 at 3.1 ug/ml measured after 24 hrs by crystal violet staining based analysis relative to control; format: functional; details: dose 3.1 µg/ml
Pseudomonas aeruginosa [23] = assay: Antibiofilm activity against Pseudomonas aeruginosa assessed as reduction in biofilm formation incubated for 24 hrs by microscopic analysis; format: functional, organism-based
[24] = Inhibition of quorum sensing system in Pseudomonas aeruginosa PAO1 assessed as inhibition of pyocyanin production at 12.5 uM incubated for 24 hrs by absorbance based assay relative to control
Pseudomonas aeruginosa [25] = assay: Antibiofilm activity against Pseudomonas aeruginosa PAO1 assessed as reduction in biofilm formation at 50 uM relative to control; format: functional; set-up: scale not given: the % may be the effect or the level left
Pseudomonas aeruginosa [26] = assay: Antibiofilm activity against Pseudomonas aeruginosa PAO1 assessed as reduction in biofilm formation at 12.5 uM relative to control; format: functional; set-up: scale not given: the % may be the effect or the level left
Pseudomonas aeruginosa [27] = assay: Antibiofilm activity against Pseudomonas aeruginosa PAO1 assessed as reduction in biofilm formation at 25 uM relative to control; format: functional; set-up: scale not given: the % may be the effect or the level left
Pseudomonas aeruginosa [28] = assay: Antibiofilm activity against wild type Pseudomonas aeruginosa PAO1 assessed as inhibition of biofilm formation at 100 uM incubated for 24 hrs by crystal violet staining based analysis relative to control; format: functional; set-up: scale not given: the % may be the effect or the level left

Compound: O=CN1N=C(c2ccccc2)CC1c1cccc(Nc2ccnc3cc(Cl)ccc23)c1 (stereo not given)
IC50 [1]: 2.3 µM
IC50 [2]: 12.4 µM

inhibition (Staphylococcus aureus [3]): 47.8%
IC50 (Staphylococcus aureus [4]): 12 µM
Compound: CC(C)(C)OC(=O)NCCn1cc(-c2nc(-c3c[nH]c4ncccc34)cs2)c2ccccc21

Compound: O=C(/C=C/c1ccc(C(F)(F)F)cc1)c1ccccc1O
Activity (Pseudomonas aeruginosa [5]): 31.74%
Activity (Acinetobacter baumannii): 56.8%
Activity (Pseudomonas aeruginosa [6]): 21.91%

Compound: Cn1c(C(=O)N/N=C/c2ccc(Oc3c(Cl)cccc3Cl)cc2)cc(Br)c1Br
IC50 (Staphylococcus aureus [7]): 0.78 µg/mL
IC50 (Staphylococcus aureus [8]): 0.39 µg/mL

Compound: CC[C@H]1OC(=O)[C@H](C)[C@@H](O[C@H]2C[C@@](C)(OC)[C@@H](O)[C@H](C)O2)[C@H](C)[C@@H](O[C@@H]2O[C@H](C)C[C@H](N(C)C)[C@H]2O)[C@](C)(OC)C[C@@H](C)C(=O)[C@H](C)[C@@H](O)[C@]1(C)O [CLARITHROMYCIN]
Activity (Pseudomonas aeruginosa [9]): 29.11%

Compound: Nc1nc2cc(NC(=O)c3c(Cl)c(Cl)c(Cl)c(Cl)c3C(=O)O)ccc2[nH]1
EC50 (Staphylococcus aureus [10]): < 8 µM
EC50 (Enterococcus faecium): 75 µM
IC50 (Staphylococcus aureus [11]): 1.5 µM

IC50 [12]: 80 µM
MIC (Staphylococcus aureus [13]): > 270 µM
MIC (Staphylococcus aureus [15]): > 270 µM
MIC (Staphylococcus aureus [16]): > 270 µM
MIC [17]: > 270 µM
Compound: CC(=O)/C(=N\Nc1ccccc1)C(=O)O
Activity (Staphylococcus aureus [14]): 60%

IC50 [18]: 0.28 µM
IC50 (Pseudomonas aeruginosa [19]): 0.26 µM
Compound: Cc1cccc(/C=C2/C(c3cccc(C)c3)=CC(=O)N2Cc2ccccc2)c1

Compound: COc1ccc(CC(=O)[N-]c2c([N+]#N)c(C)nn2C)cc1
Activity (Staphylococcus aureus [20]): 25%
Activity (Staphylococcus aureus [21]): 45.7%
Activity (Staphylococcus aureus [22]): 38%

IC50 (Pseudomonas aeruginosa [23]): 47 µM
Compound: Nc1nc2ccccc2[nH]1

inhibition [24]: 94%
Compound: CCCCCCSSc1nc2ccccc2c(=O)[nH]1
Activity (Pseudomonas aeruginosa [25]): 46%
Activity (Pseudomonas aeruginosa [26]): 38%
Activity (Pseudomonas aeruginosa [27]): 43%

Compound: Nc1nc2ccc(/C=C/c3ccccc3)cc2[nH]1
Activity (Pseudomonas aeruginosa [28]): 56%
